Patent US9949938B2, “CoQ10 (ubiquinone, ubiquinol), vitamin A (retinoid acid, retinol), vitamin E (tocotrienol, tocopherol) and methods of use” (AMERICAN RIVER NUTRITION, priority 2013, dated 2018)

What was measured:
[1] = gastric conditions, pH<2, 30 minutes; cited from earlier work
[2] = CoQ10 with and without tocotrienol in hydrochloric acid (pH<2), 30 minutes, simulated gastric conditions; format: physicochemical; conditions: in the presence of tocotrienol versus without; HCl pH<2, 30 minutes
Experimental: 100 mg CoQ10 (ubiquinone or ubiquinol), with and without tocotrienol, was placed in a beaker with acid (hydrochloric acid) (pH<2) for 30 minutes to simulate gastric conditions.

Row | CoQ10 content (both ubiquinone or ubiquinol) after acid [2] | SMILES | ubiquinol converted to ubiquinone [1]
1 | – | COc1c(O)c(C)c(C/C=C(\C)CC/C=C(\C)CC/C=C(\C)CC/C=C(\C)CC/C=C(\C)CC/C=C(\C)CC/C=C(\C)CC/C=C(\C)CC/C=C(\C)CCC=C(C)C)c(O)c1OC [ubiquinol] | about 50%
2 | higher content | COC1=C(OC)C(=O)C(C/C=C(\C)CC/C=C(\C)CC/C=C(\C)CC/C=C(\C)CC/C=C(\C)CC/C=C(\C)CC/C=C(\C)CC/C=C(\C)CC/C=C(\C)CCC=C(C)C)=C(C)C1=O [CoQ10, 2,3-dimethoxy-5-methyl-6-decaprenil-1,4-benzoquinone] | –
